“And” between values parts separate entries of the source, which are not always exact repeats. Equal entries are not always repeated. Inconclusive results and toxic doses are left out. The calls were made as follows: active = survival T/C of 150% or more; inactive = T/C below 125% in these data.
System: P388 leukemia ip, CD2F1 mice, survival T/C
Test: NCI In Vivo Anticancer Drug Screen. Data for tumor model P388 Leukemia (intraperitoneal) in CD2F1 (CDF1) mice
Settings: endpoint: median survival time, higher = longer survival
Summary of the method: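 Mice carrying the transplanted tumor received test compound or vehicle. Survival was recorded in each group, and the value is the treated-group measurement divided by that of the vehicle-treated control group.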

[1] = dose: 100.0 mg/kg/injection, schedule: Q04DX003 (ip), vehicle: saline with Tween-80
[2] = dose: 50.0 mg/kg/injection, schedule: Q01DX009 (ip), vehicle: Klucel (hydroxypropylcellulose) (HPC)
[3] = dose: 100.0 mg/kg/injection, schedule: Q01DX009 (ip), vehicle: Klucel (hydroxypropylcellulose) (HPC)
[4] = dose: 200.0 mg/kg/injection, schedule: Q01DX009 (ip), vehicle: Klucel (hydroxypropylcellulose) (HPC)

Measured: T/C

CC1=CC(=O)C(=Ic2ccccc2)C(=O)O1
inactive: dose: 50.0 mg/kg/injection, schedule: Q01DX005 (ip), vehicle: Klucel (hydroxypropylcellulose) (HPC) 100 % of control | dose: 100.0 mg/kg/injection, schedule: Q01DX005 (ip), vehicle: Klucel (hydroxypropylcellulose) (HPC) 98 % of control | dose: 200.0 mg/kg/injection, schedule: Q01DX005 (ip), vehicle: Klucel (hydroxypropylcellulose) (HPC) 104 % of control

CC1CN=C(c2ccc(NC(=O)Nc3ccc(C(=O)Nc4ccc(C5=NCC(C)N5)cc4)cc3)cc2)N1 (stereo not given)
inactive: dose: 25.0 mg/kg/injection, schedule: Q04DX003 (ip), vehicle: saline with Tween-80 116 % of control | dose: 50.0 mg/kg/injection, schedule: Q01DX009 (ip), vehicle: saline with Tween-80 95 % of control
active: dose: 12.5 mg/kg/injection, schedule: Q01DX009 (ip), vehicle: saline with Tween-80 195 % of control | dose: 25.0 mg/kg/injection, schedule: Q01DX009 (ip), vehicle: saline with Tween-80 159 % of control and 213 % of control | [1] 150 % of control | dose: 100.0 mg/kg/injection, schedule: Q04DX003 (ip), vehicle: saline 163 % of control

CCCCCCCCCCCC(=O)N(CCOC(=O)C(C)(C)C)CCOC(=O)C(C)(C)C
inactive: dose: 25.0 mg/kg/injection, schedule: Q01DX009 (ip), vehicle: Klucel (hydroxypropylcellulose) (HPC) 97 % of control | [2] 104 % of control and 113 % of control and 94 % of control | [3] 100 % of control (2×) and 111 % of control | [4] 99 % of control and 120 % of control | dose: 400.0 mg/kg/injection, schedule: Q01DX009 (ip), vehicle: Klucel (hydroxypropylcellulose) (HPC) 108 % of control

CC1(C)CC(NCCCN(CCO)CCO)CC(C)(C)N1O
inactive: dose: 30.0 mg/kg/injection, schedule: Q01DX005 (ip), vehicle: saline 96 % of control | dose: 60.0 mg/kg/injection, schedule: Q01DX005 (ip), vehicle: saline 99 % of control | dose: 120.0 mg/kg/injection, schedule: Q01DX005 (ip), vehicle: saline 96 % of control

CN(C)c1ccc(/C=N/NC(=O)CNC(=O)c2ccccc2)cc1
inactive: dose: 60.0 mg/kg/injection, schedule: Q01DX005 (ip), vehicle: saline with Tween-80 94 % of control | dose: 120.0 mg/kg/injection, schedule: Q01DX005 (ip), vehicle: saline with Tween-80 92 % of control | dose: 240.0 mg/kg/injection, schedule: Q01DX005 (ip), vehicle: saline with Tween-80 96 % of control

CCC1(C=O)NC(=O)NC1=O (stereo not given)
inactive: dose: 50.0 mg/kg/injection, schedule: Q01DX005 (ip), vehicle: saline with Tween-80 91 % of control | dose: 100.0 mg/kg/injection, schedule: Q01DX005 (ip), vehicle: saline with Tween-80 95 % of control | dose: 200.0 mg/kg/injection, schedule: Q01DX005 (ip), vehicle: saline with Tween-80 87 % of control

COc1cc(OC)c(C(C)=O)c(O)c1C
inactive: dose: 12.5 mg/kg/injection, schedule: Q01DX009 (ip), vehicle: distilled water + Tween-80 94 % of control | dose: 25.0 mg/kg/injection, schedule: Q01DX009 (ip), vehicle: distilled water + Tween-80 101 % of control | dose: 50.0 mg/kg/injection, schedule: Q01DX009 (ip), vehicle: distilled water + Tween-80 98 % of control | dose: 100.0 mg/kg/injection, schedule: Q01DX009 (ip), vehicle: distilled water + Tween-80 99 % of control | dose: 200.0 mg/kg/injection, schedule: Q01DX009 (ip), vehicle: distilled water + Tween-80 109 % of control | dose: 400.0 mg/kg/injection, schedule: Q01DX009 (ip), vehicle: distilled water + Tween-80 100 % of control

CC(C)Cn1cnc2c(=S)nc(N)[nH]c21
inactive: dose: 8.0 mg/kg/injection, schedule: Q01DX009 (ip), vehicle: saline with Tween-80 95 % of control | dose: 16.0 mg/kg/injection, schedule: Q01DX009 (ip), vehicle: saline with Tween-80 100 % of control | dose: 32.0 mg/kg/injection, schedule: Q01DX009 (ip), vehicle: saline with Tween-80 100 % of control | dose: 64.0 mg/kg/injection, schedule: Q01DX009 (ip), vehicle: saline with Tween-80 90 % of control | [1] 109 % of control | dose: 264.0 mg/kg/injection, schedule: Q04DX003 (ip), vehicle: saline with Tween-80 100 % of control | dose: 400.0 mg/kg/injection, schedule: Q04DX003 (ip), vehicle: saline with Tween-80 112 % of control | dose: 600.0 mg/kg/injection, schedule: Q04DX003 (ip), vehicle: saline with Tween-80 116 % of control

c1ccc(N2C3Sc4ncccc4C2Sc2ncccc23)cc1
inactive: [2] 104 % of control | [3] 94 % of control | [4] 96 % of control

Source: PubChem BioAssay AID330 (DTP/NCI, 2004)
